Assay results as given in patent publication US8895739B2, “Acylation of hindered amines and functionalized bis-peptides obtained thereby” (Temple University of the Commonwealth System of Higher …, priority 2008, dated 2014).

Legend:
[1] = tested on: Huh7 cells; assay: cell penetration by fluorescence microscopy, Huh7; assay type: cell-based, human
Experimental: (§1) The effect of the sub-micromolar HDM2 binding bis-peptide 1 in cell-culture was thereafter evaluated. The cell-penetrating capability of two of the functionalized bis-peptides was first examined. […] Bis-peptide 1 was then incubated with both Huh7 cells and HepG2 (human liver hepatoblastoma cells) and imaged.

[2] = tested on: HepG2 cells; assay type: cell-based, human
Experimental: as §1

[3] = tested on: p53; conditions: stated as known behaviour of HDM2 ligands; cited from earlier work

Row | Compound | cellular uptake and distribution [1] | cellular uptake and distribution [2] | effect on p53 levels [3] | cellular uptake ([1]; Huh7, 2 μM, 24 hours, fluorescence and confocal microscopy)
1 | CC(C)CN1C(=O)[C@@H]2C[C@@]3(CN2C(=O)[C@@]12C[C@H]1C(=O)N(Cc4ccc(Cl)c(Cl)c4)[C@]4(C[C@@H]5C(=O)N[C@@H](CCc6ccccc6)C(=O)N5C4)C(=O)N1C2)NC(=O)[C@@H](CCCCNC(=S)Nc1ccc2c(c1)C(=O)OC21c2ccc(O)cc2Oc2cc(O)ccc21)NC3=O [Entry 1] | distribution of entry 1 throughout the cytoplasm and nucleus | distribution of entry 1 throughout the cytoplasm and nucleus | – | –
2 | COc1ccc(C2=N[C@@H](c3ccc(Cl)cc3)[C@@H](c3ccc(Cl)cc3)N2C(=O)N2CCNC(=O)C2)c(OC(C)C)c1 [nutlin-3a] | – | – | increase in p53 levels | –
3 | CC(C)CN1C(=O)[C@@H]2C[C@@]3(CN2C(=O)[C@@]12C[C@H]1C(=O)N(Cc4ccc5ccccc5c4)[C@]4(C[C@H]5C(=O)N[C@@H](Cc6ccccc6)C(=O)N5C4)C(=O)N1C2)NC(=O)[C@H](CCCCNC(=S)Nc1ccc2c(c1)C(=O)OC21c2ccc(O)cc2Oc2cc(O)ccc21)NC3=O [Entry 3] | – | – | – | Significant uptake
4 | O=C1OC2(c3ccc(O)cc3Oc3cc(O)ccc32)c2ccccc21 [fluorescein, reference compound] | no visible uptake of fluorescence | no visible uptake of fluorescence | – | –
